Results taken from patent publication US11072608B2, “Pesticidally active heterocyclic derivatives with sulphur containing substituents” (SYNGENTA PARTICIPATIONS AG, priority 2014, dated 2021).

What was measured:
Assay type in all cases: in vivo
[1] = test system: Spodoptera littoralis (Egyptian cotton leaf worm); assay: Example B1: activity against Spodoptera littoralis, cotton leaf disc spray; conditions: foliar, 72 h, application rate of 200 ppm, cotton leaf discs, L1 larvae, 3 days after infestation, read-out: control in at least one of the three categories (mortality, anti-feedancy or growth inhibition)
Method: Example B1: Activity Against Spodoptera littoralis (Egyptian Cotton Leaf Worm)
Cotton leaf discs were placed on agar in 24-well microtiter plates and sprayed with aqueous test solutions prepared from 10,000 ppm DMSO stock solutions. After drying the leaf discs were infested with five L1 larvae. The samples were assessed for mortality, anti-feedant effect, and growth inhibition in comparison to untreated samples 3 days after infestation. Control of Spodoptera littoralis by a test sample is when at least one of mortality, anti-feedant effect, and growth inhibition is higher than the untreated sample. The following compound gave an effect of at least 80% control in at least one of the three categories (mortality, anti-feedancy or growth inhibition) at an application rate of 200 ppm: P1, P4, P5, P8, P9, P10, P12 and P13.

[2] = test system: Euschistus heros (neotropical brown stink bug); assay: Example B8: activity against Euschistus heros, soybean leaf spray; conditions: 120 h, application rate of 200 ppm, N-2 nymphs, 5 days after infestation
Method: Example B8: Activity Against Euschistus heros (Neotropical Brown Stink Bug)
Soybean leaf on agar in 24-well microtiter plates were sprayed with aqueous test solutions prepared from 10,000 ppm DMSO stock solutions. After drying the leaf were infested with N-2 nymphs. The samples were assessed for mortality 5 days after infestation.

[3] = test system: Diabrotica balteata (corn root worm); assay: Example B4: activity against Diabrotica balteata, maize sprouts spray; conditions: 96 h, application rate of 200 ppm, L2 larvae, 4 days after infestation, read-out: effect in at least one of the two categories (mortality or growth inhibition)
Method: Example B4: Activity Against Diabrotica balteata (Corn Root Worm)
Maize sprouts, placed on an agar layer in 24-well microtiter plates were treated with aqueous test solutions prepared from 10,000 ppm DMSO stock solutions by spraying. After drying, the plates were infested with L2 larvae (6 to 10 per well). The samples were assessed for mortality and growth inhibition in comparison to untreated samples 4 days after infestation. The following compounds gave an effect of at least 80% in at least one of the two categories (mortality or growth inhibition) at an application rate of 200 ppm: P1, P4, P5, P6, P8, P9, P10, P11, P12 and P13.

[4] = test system: Spodoptera littoralis (Egyptian cotton leaf worm); assay: Example B2: activity against Spodoptera littoralis, systemic via lettuce on agar; conditions: 144 h, application rate of 12.5 ppm, Spodoptera eggs, 6 days after infestation, read-out: control in at least one of the three categories (mortality, anti-feedancy or growth inhibition)
Excerpt: Example B2: Activity Against Spodoptera Littoralis (Egyptian Cotton Leaf Worm)
Test compounds were applied by pipette from 10,000 ppm DMSO stock solutions into 24-well plates and mixed with agar. Lettuce seeds were placed on the agar and the multi well plate was closed by another plate which contains also agar. After 7 days the roots have absorbed the compound and the lettuce has grown into the lid plate. The lettuce leafs were now cut off into the lid plate. Spodoptera eggs were pipetted through a plastic stencil on a humid gel blotting paper and the plate closed with it. The samples were assessed for mortality, anti-feedant effect and growth inhibition in comparison to untreated samples 6 days after infestation. The following compound gave an effect of at least 80% control in at least one of the three categories (mortality, anti-feedancy or growth inhibition) at an application rate of 12.5 ppm: P1, P4, P9, P12 and P13.

[5] = test system: Myzus persicae (green peach aphid); assay: Example B5: activity against Myzus persicae, sunflower leaf disc spray; conditions: foliar, 144 h, application rate of 200 ppm, sunflower leaf discs, mixed ages, 6 days after infestation
Method: Example B5: Activity Against Myzus persicae (Green Peach Aphid)
Sunflower leaf discs were placed on agar in a 24-well microtiter plate and sprayed with aqueous test solutions prepared from 10,000 ppm DMSO stock solutions. After drying, the leaf discs were infested with an aphid population of mixed ages. The samples were assessed for mortality 6 days after infestation.

[6] = test system: Myzus persicae (green peach aphid); assay: Example B6: activity against Myzus persicae, sucrose solution through Parafilm; conditions: 120 h, test rate of 12 ppm, 5 days after infestation
Excerpt: Example B6: Activity Against Myzus persicae (Green Peach Aphid)
Test compounds from 10,000 ppm DMSO stock solutions were applied by pipette into 24-well microtiter plates and mixed with sucrose solution. The plates were closed with a stretched Parafilm. A plastic stencil with 24 holes was placed onto the plate and infested pea seedlings were placed directly on the Parafilm. The infested plate was closed with a gel blotting paper and another plastic stencil and then turned upside down. The samples were assessed for mortality 5 days after infestation.

[7] = test system: Plutella xylostella (diamond back moth); assay: Example B3: activity against Plutella xylostella, artificial diet; conditions: 120 h, application rate of 200 ppm, L2 larvae, 5 days after infestation, read-out: effect in at least one of the two categories (mortality or growth inhibition)
Method: Example B3: Activity Against Plutella xylostella (Diamond Back Moth)
24-well microtiter plates with artificial diet were treated with aqueous test solutions prepared from 10,000 ppm DMSO stock solutions by pipetting. After drying, the plates were infested with L2 larvae (10 to 15 per well). The samples were assessed for mortality and growth inhibition in comparison to untreated samples 5 days after infestation. The following compound gave an effect of at least 80% in at least one of the two categories (mortality or growth inhibition) at an application rate of 200 ppm: P1, P4, P5, P6, P8, P9, P10, P11, P12 and P13.

CCSc1cc(C2CC2)cnc1-c1nc2cc(C(F)(F)F)cnc2n1C [Compound P1, 2-(5-cyclopropyl-3-ethylsulfanyl-2-pyridyl)-3-methyl-6-(trifluoromethyl)imidazo[4,5-b]pyridine]
≥ 80%: percent control (mortality, anti-feedancy or growth inhibition) at 200 ppm [1] | mortality at 200 ppm [2] | percent effect (mortality or growth inhibition) at 200 ppm [3] | control at 12.5 ppm [4] | mortality at 200 ppm [5] | mortality at 12 ppm [6] | percent effect (mortality or growth inhibition) at 200 ppm [7]
